Test results taken from PubChem BioAssay AID2503 (Sanford-Burnham Center for Chemical Genomics, 2010).
Active and inactive are the calls of the source. How the calls were made is not given here.

Tested on: MCF-7/NOD2 cells, MDP-induced IL-8 secretion
Assay: inhibition of NOD2-driven IL-8 release, SAR follow-up, MCF-7/NOD2 cells, MDP stimulus, set 2 (AID 2503)

In the case of `CCCn1c(SCC(=O)Nc2nc3c(s2)CCCC3)nc2c1c(=O)n(C)c(=O)n2C`, the IC50 is reported as > 25 µM (inactive).
Work on `Cc1ccc(S(=O)(=O)n2c(N)nc3ccccc32)cc1` yielded an IC50 of 17.3 µM.
`CCCCn1c(CN2CCN(c3cccc(Cl)c3)CC2)nc2c1c(=O)n(C)c(=O)n2C` was tested, and the IC50 was > 25 µM (inactive).
`C/C=C/Cn1c(SCc2ccc(Cl)cc2)nc2c1c(=O)[nH]c(=O)n2C` was tested, and the IC50 was > 25 µM (inactive).
In the case of `C/C(Cl)=C\Cn1c(NCCc2ccccc2)nc2c1c(=O)n(C)c(=O)n2C`, the IC50 is reported as > 25 µM (inactive).
Molecule `Nc1nc2ccccc2n1Cc1ccc(Cl)cc1` has an IC50 of 4.59 µM.
For `CCC(=O)Nc1nc2ccccc2n1Cc1ccc(Cl)cc1`, the IC50 was 13.2 µM.
With `O=C(Nc1nc2ccccc2n1Cc1ccc(Cl)cc1)c1ccco1` the IC50 was > 25 µM (inactive).
In the case of `Oc1ccc(N=Nc2ccccc2C(F)(F)F)c2cccnc12`, the IC50 is reported as > 25 µM (inactive).
In the case of `Cn1c(=O)[nH]c(=O)c2c1nc([N+](=O)[O-])n2Cc1ccccc1`, the IC50 is reported as 1.31 µM.
For `CCCCn1c(SCC(=O)Nc2nnc(CC)s2)nc2c1c(=O)n(C)c(=O)n2C`, the IC50 was > 25 µM (inactive).
`Cc1ccc(S(=O)(=O)n2c(=S)[nH]c3cc(C)ccc32)cc1` was tested, and the IC50 was > 25 µM (inactive).
`C/C=C/Cn1c(SCc2ccccc2)nc2c1c(=O)[nH]c(=O)n2C` was tested, and the IC50 was > 25 µM (inactive).
For `CCCn1c(SCCc2ccccc2)nc2c1c(=O)[nH]c(=O)n2C`, the IC50 was > 25 µM (inactive).
`C=CCn1c(SCCCc2ccccc2)nc2c1c(=O)[nH]c(=O)n2C` was tested, and the IC50 was > 25 µM (inactive).
With `COCCn1c(SCCCc2ccccc2)nc2c1c(=O)[nH]c(=O)n2C` the IC50 was > 25 µM (inactive).
In the case of `CC(C)Sc1nc2c(c(=O)[nH]c(=O)n2C)n1Cc1ccccc1`, the IC50 is reported as > 25 µM (inactive).
With `Nc1nc2ccccc2n1CCOc1ccc(Cl)cc1` the IC50 was > 25 µM (inactive).
`CCCCn1c(SCC(=O)c2ccccc2)nc2c1c(=O)[nH]c(=O)n2C` was tested, and the IC50 was > 25 µM (inactive).
In the case of `COc1ccc(C(=O)Cn2c(N)nc3ccccc32)cc1`, the IC50 is reported as > 25 µM (inactive).
`CCCCCn1c(SCCc2ccccc2)nc2c1c(=O)[nH]c(=O)n2C` was tested, and the IC50 was > 25 µM (inactive).
With `C/C=C/Cn1c(SCCCc2ccccc2)nc2c1c(=O)[nH]c(=O)n2C` the IC50 was > 25 µM (inactive).
`CC(C)n1c(SCCCc2ccccc2)nc2c1c(=O)[nH]c(=O)n2C` was tested, and the IC50 was > 25 µM (inactive).
